Results taken from patent US11046649B2, “Compounds useful as inhibitors of indoleamine 2,3-dioxygenase and/or tryptophan dioxygenase” (Board of Regents, The University of Texas System, priority 2018, dated 2021).

Molecular target: T1, IDO1 (Homo sapiens, UniProt P14902)
T1 construct: endogenous in cells; host or cells: HeLa cells (ATCC), IDO1 induced with 10 ng/mL IFNgamma
Assay: IDO1 cell-based assay
Details: HeLa cells, 10 ng/mL IFNgamma, 24 hours with test compound; N-Formyl Kynurenine and L-tryptophan quantified by RFMS

T1 sequence (P14902 whole entry): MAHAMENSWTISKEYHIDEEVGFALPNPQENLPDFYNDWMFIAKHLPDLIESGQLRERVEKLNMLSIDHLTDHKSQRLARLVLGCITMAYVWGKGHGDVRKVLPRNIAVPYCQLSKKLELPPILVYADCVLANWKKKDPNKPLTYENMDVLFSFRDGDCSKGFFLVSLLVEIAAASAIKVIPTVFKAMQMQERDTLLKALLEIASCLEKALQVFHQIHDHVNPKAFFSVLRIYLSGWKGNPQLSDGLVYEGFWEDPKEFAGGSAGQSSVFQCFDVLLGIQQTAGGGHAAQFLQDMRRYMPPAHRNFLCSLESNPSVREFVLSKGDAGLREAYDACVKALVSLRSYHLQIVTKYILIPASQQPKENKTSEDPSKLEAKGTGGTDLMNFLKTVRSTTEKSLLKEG

Molecule	IC50
2-((1R,3s,5S,6r)-3-((6- fluoroquinolin-4-yl)oxy)- bicyclo[3.1.0]hexan-6-yl)- N-(1-(trifluoromethyl)-1H- pyrazol-3-yl)propanamide [Example 102]	3.7 nM
2-((1R,3s,5S,6r)-3-((6- fluoroquinolin-4-yl)oxy)- bicyclo[3.1.0]hexan-6-yl)- N-(5-(4-methyl-4H-1,2,4- triazol-3-yl)pyridin-2-yl)- propanamide [Example 97]	818 nM
CC(C(=O)Nc1ccc(F)cn1)[C@H]1[C@@H]2C[C@@H](n3cnc4cc(F)c(F)cc43)C[C@@H]21 (stereo partly drawn) [Example 4, 2-((1R,3s,5S,6r)-3-(5,6-difluoro-1H-benzo[d]imidazol-1-yl)bicyclo[3.1.0]hexan-6-yl)-N-(5-fluoropyridin-2-yl)propanamide]	5.1 nM
COc1ccc(-c2ccc(NC(=O)[C@@H](C)[C@H]3[C@@H]4C[C@@H](n5cnc6cc(F)c(F)cc65)C[C@@H]43)cc2)cn1 [Example 6, (S)-2-((1R,3R,5S,6r)-3-(5,6-difluoro-1H-benzo[d]imidazol-1-yl)bicyclo[3.1.0]hexan-6-yl)-N-(4-(6-methoxypyridin-3-yl)phenyl)propanamide]	329 nM
CC(C(=O)NC12CC(CO)(C1)C2)[C@H]1[C@@H]2C[C@@H](Oc3ccnc4ccc(F)cc34)C[C@@H]21 (stereo partly drawn) [Example 7, 2-((1R,3s,5S,6r)-3-((6-fluoroquinolin-4-yl)oxy)bicyclo[3.1.0]hexan-6-yl)-N-(3-(hydroxy-methyl)bicyclo[1.1.1]pentan-1-yl)propanamide]	468 nM
CC(C(=O)NC12CC(CC#N)(C1)C2)[C@H]1[C@@H]2C[C@@H](Oc3ccnc4ccc(F)cc34)C[C@@H]21 (stereo partly drawn) [Example 8, N-(3-(cyanomethyl)bicyclo[1.1.1]pentan-1-yl)-2-((1R,3s,5S,6r)-3-((6-fluoroquinolin-4-yl)-oxy)bicyclo[3.1.0]hexan-6-yl)propanamide]	51.3 nM
COCC12CC(NC(=O)C(C)[C@H]3[C@@H]4C[C@@H](Oc5ccnc6ccc(F)cc56)C[C@@H]43)(C1)C2 (stereo partly drawn) [Example 9, 2-((1R,3s,5S,6r)-3-((6-fluoroquinolin-4-yl)oxy)bicyclo[3.1.0]hexan-6-yl)-N-(3-(methoxymethyl)bicyclo[1.1.1]pentan-1-yl)propanamide]	55 nM
CC(C(=O)NC12CC(N)(C1)C2)[C@H]1[C@@H]2C[C@@H](Oc3ccnc4ccc(F)cc34)C[C@@H]21 (stereo partly drawn) [Example 11, N-(3-aminobicyclo[1.1.1]pentan-1-yl)-2-((1R,3s,5S,6r)-3-((6-fluoroquinolin-4-yl)oxy)-bicyclo-[3.1.0]hexan-6-yl)propanamide]	1600 nM
CCC(c1nc2cc(C(F)(F)F)ccc2[nH]1)[C@H]1[C@@H]2C[C@@H](Oc3ccnc4ccc(F)cc34)C[C@@H]21 (some centres unmarked) [Example 12]	0.85 nM
CC(C(=O)NC12CC(C(C)O)(C1)C2)[C@H]1[C@@H]2C[C@@H](n3cnc4cc(F)c(F)cc43)C[C@@H]21 (stereo partly drawn) [Example 13, 2-((1R,3s,5S,6r)-3-(5,6-difluoro-1H-benzo[d]imidazol-1-yl)bicyclo[3.1.0]hexan-6-yl)-N-(3-(1-hydroxyethyl)bicyclo[1.1.1]pentan-1-yl)propanamide]	626 nM
CC(C(=O)Nc1ccc(Cl)cc1)[C@H]1[C@@H]2C[C@@H](n3cnc4ccc(C#N)cc43)C[C@@H]21 (stereo partly drawn) [Example 16, N-(4-chlorophenyl)-2-((1R,3s,5S,6r)-3-(6-cyano-1H-benzo[d]imidazol-1-yl)-bicyclo[3.1.0]hexan-6-yl)-propanamide]	4.4 nM
CC(C(=O)Nc1ccc(C(F)(F)F)cn1)[C@H]1[C@@H]2C[C@@H](n3cnc4cc(F)c(F)cc43)C[C@@H]21 (stereo partly drawn) [Example 18, 2-((1R,3s,5S,6r)-3-(5,6-difluoro-1H-benzo[d]-imidazol-1-yl)bicyclo-[3.1.0]hexan-6-yl)-N-(5-(trifluoromethyl)pyridin-2-yl)propanamide]	4.8 nM
CC(C(=O)Nc1ccc(Cl)cn1)[C@H]1[C@@H]2C[C@@H](n3cnc4cc(F)c(F)cc43)C[C@@H]21 (stereo partly drawn) [Example 22, N-(5-chloropyridin-2-yl)-2-((1R,3s,5S,6r)-3-(5,6-difluoro-1H-benzo[d]-imidazol-1-yl)bicyclo-[3.1.0]hexan-6-yl)-propanamide]	2.5 nM
CC(C(=O)NC12CC(C#N)(C1)C2)[C@H]1[C@@H]2C[C@@H](n3cnc4cc(F)c(F)cc43)C[C@@H]21 (stereo partly drawn) [Example 23, N-(3-cyanobicyclo-[1.1.1]pentan-1-yl)-2-((1R,3s,5S,6r)-3-(5,6-difluoro-1H-benzo[d]-imidazol-1-yl)bicyclo-[3.1.0]hexan-6-yl)-propanamide]	1650 nM
CC(C(=O)NC12CC(C(F)(F)F)(C1)C2)[C@H]1[C@@H]2C[C@@H](n3cnc4cc(F)c(F)cc43)C[C@@H]21 (stereo partly drawn) [Example 24, 2-((1R,3s,5S,6r)-3-(5,6-difluoro-1H-benzo[d]-imidazol-1-yl)bicyclo-[3.1.0]hexan-6-yl)-N-(3-(trifluoromethyl)bicyclo [1.1.1]pentan-1-yl)-propanamide]	117 nM
CC(C(=O)NC1CC(F)C1)[C@H]1[C@@H]2C[C@@H](n3cnc4cc(F)c(F)cc43)C[C@@H]21 (stereo partly drawn) [Example 25, 2-((1R,3s,5S,6r)-3-(5,6-difluoro-1H-benzo[d]-imidazol-1-yl)bicyclo-[3.1.0]hexan-6-yl)-N-(3-fluorocyclobutyl)-propanamide]	3420 nM
COc1ccc(NC(=O)C(C)[C@H]2[C@@H]3C[C@@H](n4cnc5cc(F)c(F)cc54)C[C@@H]32)nc1 (stereo partly drawn) [Example 27, 2-((1R,3s,5S,6r)-3-(5,6-difluoro-1H-benzo[d]-imidazol-1-yl)bicyclo-[3.1.0]hexan-6-yl)-N-(5-methoxypyridin-2-yl)-propanamide]	6.63 nM
CC(C(=O)NC12CC(F)(C1)C2)[C@H]1[C@@H]2C[C@@H](n3cnc4cc(F)c(F)cc43)C[C@@H]21 (stereo partly drawn) [Example 28, 2-((1R,3s,5S,6r)-3-(5,6-difluoro-1H-benzo[d]-imidazol-1-yl)bicyclo-[3.1.0]hexan-6-yl)-N-(3-fluorobicyclo[1.1.1]pentan-1-yl)propanamide]	2520 nM
Cc1ccc(NC(=O)C(C)[C@H]2[C@@H]3C[C@@H](n4cnc5cc(F)c(F)cc54)C[C@@H]32)nc1 (stereo partly drawn) [Example 29, 2-((1R,3s,5S,6r)-3-(5,6-difluoro-1H-benzo[d]-imidazol-1-yl)bicyclo-[3.1.0]hexan-6-yl)-N-(5-methylpyridin-2-yl)-propanamide]	10.9 nM
CC(C(=O)NC1CC(F)(F)C1)[C@H]1[C@@H]2C[C@@H](n3cnc4cc(F)c(F)cc43)C[C@@H]21 (stereo partly drawn) [Example 30, 2-((1R,3s,5S,6r)-3-(5,6-difluoro-1H-benzo[d]-imidazol-1-yl)bicyclo-[3.1.0]hexan-6-yl)-N-(3,3-difluorocyclobutyl)-propanamide]	1640 nM
CC(C(=O)Nc1cnn(C)c1)[C@H]1[C@@H]2C[C@@H](n3cnc4cc(F)c(F)cc43)C[C@@H]21 (stereo partly drawn) [Example 31, 2-((1R,3s,5S,6r)-3-(5,6-difluoro-1H-benzo[d]-imidazol-1-yl)bicyclo-[3.1.0]hexan-6-yl)-N-(1-methyl-1H-pyrazol-4-yl)-propanamide]	141 nM
CC(C(=O)NC1CCC(F)(F)C1)[C@H]1[C@@H]2C[C@@H](n3cnc4cc(F)c(F)cc43)C[C@@H]21 (stereo partly drawn) [Example 32, 2-((1R,3s,5S,6r)-3-(5,6-difluoro-1H-benzo[d]-imidazol-1-yl)bicyclo-[3.1.0]hexan-6-yl)-N-(3,3-difluorocyclopentyl)-propanamide]	289 nM
CC(C(=O)Nc1ccn(C)n1)[C@H]1[C@@H]2C[C@@H](n3cnc4cc(F)c(F)cc43)C[C@@H]21 (stereo partly drawn) [Example 34, 2-((1R,3s,5S,6r)-3-(5,6-difluoro-1H-benzo[d]-imidazol-1-yl)bicyclo-[3.1.0]hexan-6-yl)-N-(1-methyl-1H-pyrazol-3-yl)-propanamide]	179 nM
O=C(N[C@H](C1CC1)[C@H]1[C@@H]2C[C@@H](Oc3ccnc4ccc(F)cc34)C[C@@H]21)c1ccc(Cl)cc1 [Example 38, 4-chloro-N-((R)-cyclo-propyl((1R,3s,5S,6r)-3-((6-fluoroquinolin-4-yl)oxy)-bicyclo[3.1.0]hexan-6-yl)-methyl)benzamide]	1.37 nM
CC(C(=O)NC12CC(c3ccc(F)cc3)(C1)C2)[C@H]1[C@@H]2C[C@@H](n3cnc4cc(F)c(F)cc43)C[C@@H]21 (stereo partly drawn) [Example 39, 2-((1R,3s,5S,6r)-3-(5,6-difluoro-1H-benzo[d]-imidazol-1-yl)bicyclo-[3.1.0]hexan-6-yl)-N-(3-(4-fluorophenyl)bicyclo-[1.1.1]pentan-1-yl)-propanamide]	12.9 nM
CC(C(=O)NC1CCC(F)(F)CC1)[C@H]1[C@@H]2C[C@@H](n3cnc4cc(F)c(F)cc43)C[C@@H]21 (stereo partly drawn) [Example 43, 2-((1R,3s,5S,6r)-3-(5,6-difluoro-1H-benzo[d]-imidazol-1-yl)bicyclo-[3.1.0]hexan-6-yl)-N-(4,4-difluorocyclohexyl)-propanamide]	192 nM
CC(C(=O)NCC(F)(F)F)[C@H]1[C@@H]2C[C@@H](n3cnc4cc(F)c(F)cc43)C[C@@H]21 (stereo partly drawn) [Example 44, 2-((1R,3s,5S,6r)-3-(5,6-difluoro-1H-benzo[d]-imidazol-1-yl)bicyclo-[3.1.0]hexan-6-yl)-N-(2,2,2-trifluoroethyl)-propanamide]	6760 nM
CC(C(=O)NCCC(F)(F)F)[C@H]1[C@@H]2C[C@@H](n3cnc4cc(F)c(F)cc43)C[C@@H]21 (stereo partly drawn) [Example 45, 2-((1R,3s,5S,6r)-3-(5,6-difluoro-1H-benzo[d]-imidazol-1-yl)bicyclo-[3.1.0]hexan-6-yl)-N-(3,3,3-bifluoropropyl)-propanamide]	663 nM
Cc1nc(NC(=O)C(C)[C@H]2[C@@H]3C[C@@H](n4cnc5cc(F)c(F)cc54)C[C@@H]32)ccc1C#N (stereo partly drawn) [Example 46, (R)-N-(5-cyano-6-methyl-pyridin-2-yl)-2-((1R,3s,5S,6r)-3-(5,6-difluoro-1H-benzo[d]-imidazol-1-yl)bicyclo-[3.1.0]hexan-6-yl)-propanamide]	41.3 nM
